Data as given in patent US10526337B2, “Heteroaryl derivative or pharmaceutically acceptable salt thereof, preparation method therefor, and pharmaceutical composition for preventing or treating diseases associated with PI3 kinases, containing same as active ingredient” (KOREA RESEARCH INSTITUTE OF CHEMICAL TECHNOLOGY, priority 2015, dated 2020).

Assays:
Conditions in all cases: ATP=10 uM, sample concentration=100 nM
[1] = molecular target: T1, PI3 Kinase (p110δ/p85α) (h) (Homo sapiens, UniProt O00329); test: Inhibition of phosphatidylinositol 3-kinase delta (PI3K δ), pAkt Western blotting in IgM-stimulated Raji cells; assay type: cell-based
T1 construct: endogenous in cells; host or cells: Raji
How it was run: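 Raji cells were treated with compound for 1.5 h, then stimulated with 0.25 μg/mL IgM for 30 min to activate PI3Kδ. Lysates were Western blotted for pAkt (Ser473 or Thr308) with ECL detection. Conditions stated: ATP=10 uM, sample concentration=100 nM.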

[2] = molecular target: T2, PI3 Kinase (p110α/p85α) (h) (Homo sapiens, UniProt P42336); test: Inhibition of phosphatidylinositol 3-kinase alpha (PI3K α), pAkt Western blotting in EGF-stimulated MDA-MB-453 cells; assay type: cell-based
T2 construct: endogenous in cells; host or cells: MDA-MB-453
T2 sequence (P42336 whole entry): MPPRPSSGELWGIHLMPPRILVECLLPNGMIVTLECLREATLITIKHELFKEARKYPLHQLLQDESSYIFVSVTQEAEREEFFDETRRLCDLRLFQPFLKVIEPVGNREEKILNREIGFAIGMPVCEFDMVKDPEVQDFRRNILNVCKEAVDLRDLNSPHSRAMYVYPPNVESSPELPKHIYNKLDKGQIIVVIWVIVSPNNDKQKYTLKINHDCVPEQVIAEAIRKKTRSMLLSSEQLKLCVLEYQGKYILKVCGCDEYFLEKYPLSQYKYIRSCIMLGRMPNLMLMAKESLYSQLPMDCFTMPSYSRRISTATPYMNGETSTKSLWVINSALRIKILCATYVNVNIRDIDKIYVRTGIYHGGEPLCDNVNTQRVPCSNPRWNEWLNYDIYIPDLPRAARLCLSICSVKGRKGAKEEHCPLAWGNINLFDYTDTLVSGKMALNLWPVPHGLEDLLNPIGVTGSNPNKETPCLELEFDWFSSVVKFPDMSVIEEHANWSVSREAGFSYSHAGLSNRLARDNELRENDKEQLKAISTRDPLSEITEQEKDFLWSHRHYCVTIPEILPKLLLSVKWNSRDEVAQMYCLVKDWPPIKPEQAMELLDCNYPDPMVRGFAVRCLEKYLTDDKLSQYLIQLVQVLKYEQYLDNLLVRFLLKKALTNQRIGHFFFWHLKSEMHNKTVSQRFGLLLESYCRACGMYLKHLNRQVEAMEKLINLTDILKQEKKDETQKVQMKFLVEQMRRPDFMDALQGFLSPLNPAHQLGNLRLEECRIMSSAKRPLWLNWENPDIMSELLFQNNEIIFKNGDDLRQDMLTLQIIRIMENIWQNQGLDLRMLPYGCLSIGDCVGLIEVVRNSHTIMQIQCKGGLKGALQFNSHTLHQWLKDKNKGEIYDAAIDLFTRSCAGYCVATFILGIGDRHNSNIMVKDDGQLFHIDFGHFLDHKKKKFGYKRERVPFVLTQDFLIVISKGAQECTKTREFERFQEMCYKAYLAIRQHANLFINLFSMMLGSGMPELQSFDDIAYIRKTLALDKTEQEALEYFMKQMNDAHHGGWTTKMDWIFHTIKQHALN
T2 sequence (P27986 2-724 partner limits assumed): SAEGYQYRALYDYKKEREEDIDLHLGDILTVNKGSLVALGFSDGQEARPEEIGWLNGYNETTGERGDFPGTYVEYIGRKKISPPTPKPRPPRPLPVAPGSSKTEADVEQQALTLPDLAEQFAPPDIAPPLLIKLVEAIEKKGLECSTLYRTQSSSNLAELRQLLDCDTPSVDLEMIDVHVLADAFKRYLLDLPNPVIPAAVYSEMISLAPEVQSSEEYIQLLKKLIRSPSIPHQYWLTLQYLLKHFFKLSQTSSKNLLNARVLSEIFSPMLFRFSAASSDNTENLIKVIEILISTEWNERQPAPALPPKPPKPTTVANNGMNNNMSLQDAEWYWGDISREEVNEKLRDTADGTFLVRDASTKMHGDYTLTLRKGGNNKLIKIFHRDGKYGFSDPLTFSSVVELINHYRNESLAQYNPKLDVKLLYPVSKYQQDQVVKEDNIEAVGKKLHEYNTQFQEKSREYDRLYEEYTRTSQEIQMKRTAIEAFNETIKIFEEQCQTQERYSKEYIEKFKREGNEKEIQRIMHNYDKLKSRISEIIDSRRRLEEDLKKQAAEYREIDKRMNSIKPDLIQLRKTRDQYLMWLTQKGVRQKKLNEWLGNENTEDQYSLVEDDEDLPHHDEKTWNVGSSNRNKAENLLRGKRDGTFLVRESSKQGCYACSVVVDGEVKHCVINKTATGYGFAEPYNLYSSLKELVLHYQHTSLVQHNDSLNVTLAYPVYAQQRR

PI3 Kinase (p120γ) (h) = molecular target: T3, PI3 Kinase (p120γ) (h) (Homo sapiens, UniProt P48736); test: Inhibition of phosphatidylinositol 3-kinase gamma (PI3K γ), pAkt Western blotting in C5a-stimulated RAW264.7 macrophages; assay type: cell-based, mouse
T3 construct: endogenous in cells; host or cells: RAW264.7
T3 sequence (P48736 whole entry): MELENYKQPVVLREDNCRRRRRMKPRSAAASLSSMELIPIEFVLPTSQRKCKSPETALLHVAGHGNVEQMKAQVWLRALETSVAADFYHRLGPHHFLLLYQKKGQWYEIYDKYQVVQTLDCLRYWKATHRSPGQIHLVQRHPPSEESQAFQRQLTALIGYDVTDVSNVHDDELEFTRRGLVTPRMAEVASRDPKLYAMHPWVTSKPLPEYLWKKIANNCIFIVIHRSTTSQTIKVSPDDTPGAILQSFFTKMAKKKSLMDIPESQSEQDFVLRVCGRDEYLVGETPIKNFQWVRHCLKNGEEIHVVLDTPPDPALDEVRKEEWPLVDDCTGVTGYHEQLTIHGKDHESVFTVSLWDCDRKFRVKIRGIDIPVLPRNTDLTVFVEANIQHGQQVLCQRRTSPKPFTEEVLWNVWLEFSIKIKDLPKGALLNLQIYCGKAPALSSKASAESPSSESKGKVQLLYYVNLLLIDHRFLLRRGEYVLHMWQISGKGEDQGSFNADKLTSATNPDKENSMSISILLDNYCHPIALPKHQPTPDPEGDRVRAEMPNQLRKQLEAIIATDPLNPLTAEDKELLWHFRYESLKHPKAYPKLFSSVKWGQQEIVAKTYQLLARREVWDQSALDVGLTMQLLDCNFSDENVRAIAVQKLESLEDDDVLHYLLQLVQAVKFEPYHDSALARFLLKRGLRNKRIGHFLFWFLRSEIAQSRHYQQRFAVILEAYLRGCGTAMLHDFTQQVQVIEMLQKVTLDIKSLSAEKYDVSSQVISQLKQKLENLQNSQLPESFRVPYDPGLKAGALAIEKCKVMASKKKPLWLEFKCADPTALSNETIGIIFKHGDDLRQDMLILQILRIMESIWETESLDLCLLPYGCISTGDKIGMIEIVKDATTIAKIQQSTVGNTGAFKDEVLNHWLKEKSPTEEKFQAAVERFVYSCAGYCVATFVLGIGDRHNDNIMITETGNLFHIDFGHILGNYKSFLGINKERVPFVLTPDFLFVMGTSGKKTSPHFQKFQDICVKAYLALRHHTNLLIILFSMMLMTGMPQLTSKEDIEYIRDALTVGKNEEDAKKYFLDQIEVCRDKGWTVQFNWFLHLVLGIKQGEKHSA
How it was run: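 Enzyme: PI3Kγ activity measured at ATP=10 uM with compound at 100 nM. Cellular: RAW264.7 macrophages treated with compound 1.5 h, then stimulated with 10 ng/mL C5a for 5 min; lysates (10 μg protein) probed by Western blot for pAkt (Ser473 or Thr308), ECL detection.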

[3] = molecular target: T4, PI3 Kinase (p110β/p86α) (h) (Homo sapiens, UniProt P42338); test: Inhibition of phosphatidylinositol 3-kinase beta (PI3K β), pAkt Western blotting in LPA-stimulated PC3 cells; assay type: cell-based
T4 construct: endogenous in cells; host or cells: PC3
T4 sequence (P42338 whole entry): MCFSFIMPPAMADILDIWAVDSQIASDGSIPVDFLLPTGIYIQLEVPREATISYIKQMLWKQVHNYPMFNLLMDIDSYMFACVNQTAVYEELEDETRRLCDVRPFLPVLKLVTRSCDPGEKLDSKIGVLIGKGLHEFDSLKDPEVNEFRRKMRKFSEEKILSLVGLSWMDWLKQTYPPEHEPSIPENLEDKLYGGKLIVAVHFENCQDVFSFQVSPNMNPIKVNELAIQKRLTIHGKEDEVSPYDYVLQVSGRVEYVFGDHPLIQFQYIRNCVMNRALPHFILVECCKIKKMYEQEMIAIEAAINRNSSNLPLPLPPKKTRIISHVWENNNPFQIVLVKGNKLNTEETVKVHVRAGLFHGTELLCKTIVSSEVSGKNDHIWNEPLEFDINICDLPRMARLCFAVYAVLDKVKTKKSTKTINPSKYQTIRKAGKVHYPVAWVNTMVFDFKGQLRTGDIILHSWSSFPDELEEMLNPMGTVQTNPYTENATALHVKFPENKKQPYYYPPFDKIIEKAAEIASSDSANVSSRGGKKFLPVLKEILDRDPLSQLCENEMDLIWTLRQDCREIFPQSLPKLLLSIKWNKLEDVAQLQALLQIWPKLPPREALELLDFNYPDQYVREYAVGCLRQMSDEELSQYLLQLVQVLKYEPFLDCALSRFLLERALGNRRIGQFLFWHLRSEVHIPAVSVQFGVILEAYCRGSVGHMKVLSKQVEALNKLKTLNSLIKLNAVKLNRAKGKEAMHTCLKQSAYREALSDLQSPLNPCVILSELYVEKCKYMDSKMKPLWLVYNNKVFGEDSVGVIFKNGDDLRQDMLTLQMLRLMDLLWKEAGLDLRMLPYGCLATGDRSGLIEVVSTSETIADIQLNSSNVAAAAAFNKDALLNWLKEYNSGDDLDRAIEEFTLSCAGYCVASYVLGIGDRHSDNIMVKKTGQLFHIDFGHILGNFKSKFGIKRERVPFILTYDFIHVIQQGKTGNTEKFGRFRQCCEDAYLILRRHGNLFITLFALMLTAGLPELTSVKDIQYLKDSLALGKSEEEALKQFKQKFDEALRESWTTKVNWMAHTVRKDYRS
T4 sequence (P27986 whole entry partner): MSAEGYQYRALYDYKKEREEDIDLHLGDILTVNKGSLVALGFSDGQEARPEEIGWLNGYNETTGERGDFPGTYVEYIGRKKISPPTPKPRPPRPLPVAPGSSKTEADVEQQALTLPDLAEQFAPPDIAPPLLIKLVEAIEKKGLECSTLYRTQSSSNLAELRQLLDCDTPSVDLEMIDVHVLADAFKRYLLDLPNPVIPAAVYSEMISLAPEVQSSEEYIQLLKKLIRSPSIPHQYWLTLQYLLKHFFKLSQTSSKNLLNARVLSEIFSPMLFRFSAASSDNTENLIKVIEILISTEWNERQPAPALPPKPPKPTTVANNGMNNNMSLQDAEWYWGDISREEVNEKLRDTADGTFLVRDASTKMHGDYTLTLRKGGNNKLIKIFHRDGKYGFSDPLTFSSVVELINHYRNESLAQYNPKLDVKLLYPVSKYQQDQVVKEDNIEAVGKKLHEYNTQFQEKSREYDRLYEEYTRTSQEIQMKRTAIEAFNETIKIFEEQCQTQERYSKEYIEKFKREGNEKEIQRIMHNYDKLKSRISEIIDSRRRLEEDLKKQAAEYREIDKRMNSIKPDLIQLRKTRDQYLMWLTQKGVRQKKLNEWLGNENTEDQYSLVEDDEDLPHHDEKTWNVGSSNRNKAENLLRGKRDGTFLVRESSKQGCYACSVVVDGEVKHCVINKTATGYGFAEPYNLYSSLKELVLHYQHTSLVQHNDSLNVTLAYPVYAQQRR

Row | IC50 [1] [nM] | IC50 [2] [nM] | IC50 (PI3 Kinase (p120γ) (h)) [nM] | IC50 [3] [nM] | Compound
1 | > 500 | > 500 | > 500 | > 500 | C[C@H](Nc1ncnc2c1C(=O)N(C1CCCC1)CN2)c1cc2cccc(Cl)c2c(=O)n1-c1ccccc1 [Example 63, (S)-5-(1-(8-chloro-1-oxo-2-phenyl-1,2-dihydroisoquinoline-3-yl)ethylamino)-3-cyclopentyl-2,3-dihydropyrimido[4,5-d]pyrimidine-4(1H)-one]
2 | > 500 | > 500 | > 500 | > 500 | O=c1nc[nH]c2ncnc(N3CCC[C@H]3c3nn4ccc(Cl)c4c(=O)n3-c3ccccc3)c12 [Example 79, (S)-5-(2-(5-chloro-4-oxo-3-phenyl-3,4-dihydropyrrolo[2,1-f][1,2,4]triazine-2-yl)pyrrolidine-1-yl)pyrimido[4,5-d]pyrimidine-4(1H)-one]
3 | 10 to 500 | > 500 | 10 to 500 | > 500 | C[C@H](Nc1nc(N)nc2[nH]cnc(=O)c12)c1cc2cccc(Cl)c2c(=O)n1-c1ccccc1 [Example 85, (S)-7-amino-5-(1-(8-chloro-1-oxo-2-phenyl-1,2-dihydroisoquinoline-3-yl)ethylamino)pyrimido[4,5-d]pyrimidine-4(1H)-one]
4 | 10 to 500 | 10 to 500 | 10 to 500 | 10 to 500 | C[C@H](Nc1nc(N)nc2[nH]cnc(=O)c12)c1cc2ccccc2nc1-c1ccccc1 [Example 88, (S)-7-amino-5-((1-(2-phenylquinoline-3-yl)ethyl)amino)pyrimido[4,5-d]pyrimidine-4(1H)-one]
5 | 10 to 500 | > 500 | 10 to 500 | > 500 | Nc1nc(N2CCC[C@H]2c2nn3ccc(Cl)c3c(=O)n2-c2ccccc2)c2c(=O)nc[nH]c2n1 [Example 95, (S)-7-amino-5-(2-(5-chloro-4-oxo-3-phenyl-3,4-dihydropyrrolo[2,1-f][1,2,4]triazine-2-yl)pyrrolidine-1-yl)pyrimido[4,5-d]pyrimidine-4(1H)-one]
6 | < 10 | > 500 | 10 to 500 | 10 to 500 | C[C@H](Nc1ncnc2c1C(=O)CCN2)c1c(Cl)c2cccc(Cl)c2c(=O)n1-c1ccccc1 [Example 98, (S)-4-((1-(4,8-dichloro-1-oxo-2-phenyl-1,2-dihydroisoquinoline-3-yl)ethyl)amino)-7,8-dihydropyrido[2,3-d]pyrimidine-5(6H)-one]
